Assay [1] relates to [Phosphocholine] in MDA-MB-468 cell extracts. Briefly: Phosphocholine determination assay in cell extracts (target inhibition in cells). In kind it is cell-based. As to conditions: Homo sapiens, 24 h treatment, vs untreated control. As for the experimental part:
(§1) For the determination of phosphocholine in cells, extracts were prepared according to ref. Cancer Res., 2005, 65, 9369-9376 with some modifications. MDA-MB-468 breast cancer cell line was plated at 1×10^6 cells in 10 cm petri dish culture in RPMI, 10% FCS culture medium. After 24 h, fresh medium and a compound of general formula (I) were added for further 24 h. At the end of the treatment, the cells were trypsinised, counted and the diameter was determined using a Coulter Counter (Multisizer 3, Beckman). Cells were washed twice with ice-cold physiologic saline solution and 2×10^6 cells resuspended in 0.3 mL ice-cold twice-distilled water. Then, 0.7 mL ice-cold absolut EtOH were added (final ratio EtOH/H2O 70:30, v/v). After 24 h at −20° C. the samples were sonicated and centrifuged at 14,000×g for 30 minutes.
(§2) Phosphocholine concentration levels were assessed in the supernatants using an Ultra High Pressure Liquid Chromatography system (UPLC®, Waters) coupled with a triple quadrupoles mass spectrometer (TQD, Waters) operating in single reaction monitoring mode (SRM). Analyses were performed using Acquity HSS T3 column 2.1×50 mm column, 1.8 μm particle size. Mobile phase A was H2O, modified with 0.15% formic acid, and mobile phase B was MeOH (100% A→97% A over 1 min, flow rate 0.5 mL/min). Waters TQD triple quad mass spectrometer was equipped with an electrospray ion source operating in the positive mode. Source parameters were set as follows: desolvation gas flow 1000 L/h, cone gas flow 50 L/h; collision gas flow 0.2 mL/min; source temperature 130° C.; desolvation temperature 450° C. Dimethyl glicine (DMG) was added to samples as internal standard at 100 μM final concentration. The monitored transitions were m/z 184.00 to 85.7 (collision energy 24 eV) for phosphocholine and m/z 103.0 to 57.5 (collision energy 13 eV) for DMG. The concentration of PCho in the sample was normalized to the total volume of cells (number cells×volume of single cell considered like a sphere).
As an example, the mechanism of action of cpd 39 is reported in Table 2 (Control refers to untreated cells).

In a further assay the target is T1, hChoKβ FL (Homo sapiens, UniProt Q9Y259).
T1 construct: hChoKβ full length (FL), corresponding to aminoacids 2-395; GST (N, cleaved yes); PreScission Protease recognition site (N); made in house; host or cells: Escherichia coli BL21pLysS (DE3)
T1 sequence (Q9Y259 2-395): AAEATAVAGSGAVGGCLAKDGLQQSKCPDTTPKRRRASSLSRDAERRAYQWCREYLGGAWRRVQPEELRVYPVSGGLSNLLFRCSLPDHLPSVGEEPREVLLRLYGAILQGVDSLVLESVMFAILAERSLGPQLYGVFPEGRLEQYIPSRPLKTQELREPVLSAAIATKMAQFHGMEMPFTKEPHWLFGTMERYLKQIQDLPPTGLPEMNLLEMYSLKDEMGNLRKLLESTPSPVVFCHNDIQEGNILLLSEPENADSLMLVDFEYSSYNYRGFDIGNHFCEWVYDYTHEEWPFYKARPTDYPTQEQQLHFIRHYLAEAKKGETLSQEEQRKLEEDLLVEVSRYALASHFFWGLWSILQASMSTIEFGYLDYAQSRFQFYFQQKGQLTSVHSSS
The assay can be described thus: Biochemical kinase inhibition assay (Kinase-Glo luminescent) on hChoKβ FL. As to conditions: recombinant hChoKβ FL 30 nM, ATP 5 μM, choline 20 μM, 60 min rt; read-out: ChoKβ IC50. In a few lines: (§3)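 Kinase-Glo residual-ATP luminescence with in-house E. coli-expressed, tag-cleaved enzymes: Δ49N-hChoKα 2.2 nM with 5 μM choline; hChoKβ FL 30 nM with 20 μM choline. Both used 5 μM ATP, 60 min at room temperature, 1% DMSO, pH 7.5 Hepes buffer. IC50 from 4-parameter fits of ten 3-fold dilutions from 10 μM.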
(Kinase-Glo measures the ATP left after a reaction by luminescence.)

The next assay addresses T2, Δ49N-hChoKα (Homo sapiens, UniProt P35790).
T2 construct: cDNA fragment 362-1534, corresponding to aminoacids 50 457; GST (N, cleaved yes); PreScission Protease recognition site (N); made in house; host or cells: Escherichia coli BL21pLysS (DE3)
Briefly: Biochemical kinase inhibition assay (Kinase-Glo luminescent) on Δ49N-hChoKα. The conditions noted are these: recombinant Δ49N-hChoKα 2.2 nM, ATP 5 μM, choline 5 μM, 60 min rt; read-out: ChoKα IC50. The method, boiled down:
as §3

Assay [2] relates to [Phosphocholine] in MDA-MB-468 cell supernatants. The assay can be described thus: Phosphocholine determination in cell culture medium (supernatants). In kind it is cell-based. As to conditions: Homo sapiens, 24 h treatment, vs untreated control. As for the experimental part:
as §1
as §2, with “Dimethyl glicine (DMG) was added to samples as internal standard at 100 μM final concentration.” left out, “The concentration of PCho in the sample was normalized to the total volume of cells (number cells×volume of single cell considered like a sphere).” left out
For the determination of phosphocholine in cell culture medium, cell culture supernatants (500 μL) were denatured by adding 100 μL of trichloroacetic acid (TCA) 1M containing dimethyl glicine (DMG) (100 μM), used as internal standard. […] The supernatants were subsequently analyzed for phosphocholine determination. […]

T2 sequence (P35790 50-439 isoform P35790-2): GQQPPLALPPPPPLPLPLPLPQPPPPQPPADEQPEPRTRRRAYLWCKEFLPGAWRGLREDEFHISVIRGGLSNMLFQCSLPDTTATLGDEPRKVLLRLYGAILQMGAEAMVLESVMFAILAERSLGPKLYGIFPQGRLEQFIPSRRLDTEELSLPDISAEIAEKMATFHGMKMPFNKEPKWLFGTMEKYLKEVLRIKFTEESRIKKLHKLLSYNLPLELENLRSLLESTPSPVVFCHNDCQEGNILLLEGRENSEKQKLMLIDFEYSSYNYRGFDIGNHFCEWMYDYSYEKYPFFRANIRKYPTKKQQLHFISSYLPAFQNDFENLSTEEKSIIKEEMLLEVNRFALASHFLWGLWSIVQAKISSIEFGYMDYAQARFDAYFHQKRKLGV

The term inhibition denotes the drop in the measured response relative to a control, in per cent. A higher inhibition goes with strong suppression. The IC50 is the concentration that inhibits the measured activity by half. On to `CC1(C)Cc2cnc(N)nc2-c2[nH]nc(C(=O)Nc3nc(CC(=O)N4CCC(N5CCCCC5)CC4)cs3)c21` [compound 39], for which the inhibition at 0.08 µM in assay [1] (0.08 μM compound) came out at 35%; in assay [2] (0.08 μM compound), 42%. Moreover, the inhibition at 0.4 µM in assay [1] (0.4 μM compound) came to 87%; in assay [2] (0.4 μM compound), 85%. Moreover, the figures for the inhibition at 2 µM in assay [1] (2 μM compound) and in assay [2] (2 μM compound) were 98% and 88%, respectively. Also, the IC50 on hChoKβ FL worked out at 84 nM; on Δ49N-hChoKα it was 2 nM.

For the origin of these results see patent US11117901B2, “Substituted pyrazolo[4,3-h]quinazolines as choline kinase inhibitors” (NERVIANO MEDICAL SCIENCES S.R.L., priority 2017, dated 2021).
